Columns and labels:
Histamine H3 receptor [1] = target: Histamine H3 receptor (Rattus norvegicus, UniProt Q9QYN8); assay: Displacement of [3H]-NAMH from rat histamine H3 receptor expressed in CHO cells; format: cell-based
Histamine H3 receptor [2] = target: T1, Histamine H3 receptor (Homo sapiens, UniProt Q9Y5N1); assay: biochemical
Histamine H3 receptor [3] = target: T1, Histamine H3 receptor; assay: Antagonist activity at recombinant human histamine H3 receptor assessed as inhibition of RAMH-induced [35S]GTPgammaS binding; format: functional
[4] = AUC in rat at 1 mg/kg, iv; format: ADME, organism-based; parameters: dose 1 mg/kg, route intravenous; conditions: plasma
[5] = Half life in rat at 1 mg/kg, iv; format: ADME, organism-based; parameters: dose 1 mg/kg, route intravenous; conditions: in vivo
[6] = Inhibition of dihydropyridine site of calcium channel at 10 uM
[7] = Ratio of drug level in brain to plasma in ip dosed rat after 1 hr; format: ADME, organism-based; conditions: read-out: BPR
Cytochrome P450 2C19 = Cytochrome P450 2C19 (Homo sapiens, UniProt P33261); assay: Inhibition of CYP2C19; format: ADME
Sequence of Cytochrome P450 2C19 (P33261 whole entry): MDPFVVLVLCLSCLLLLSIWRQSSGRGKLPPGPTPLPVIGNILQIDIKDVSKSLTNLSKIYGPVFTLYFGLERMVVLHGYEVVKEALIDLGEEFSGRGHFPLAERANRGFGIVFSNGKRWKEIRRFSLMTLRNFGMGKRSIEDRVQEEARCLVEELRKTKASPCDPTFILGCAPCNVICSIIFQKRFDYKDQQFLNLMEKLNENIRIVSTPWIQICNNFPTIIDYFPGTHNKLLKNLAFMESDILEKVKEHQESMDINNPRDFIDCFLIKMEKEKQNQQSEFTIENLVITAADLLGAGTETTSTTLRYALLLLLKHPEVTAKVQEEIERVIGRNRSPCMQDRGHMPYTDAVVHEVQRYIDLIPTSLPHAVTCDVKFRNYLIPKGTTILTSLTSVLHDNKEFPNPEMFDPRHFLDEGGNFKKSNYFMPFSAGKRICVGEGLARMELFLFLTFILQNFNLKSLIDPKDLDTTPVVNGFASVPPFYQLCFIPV

[8] = Cmax in rat at 5 mg/kg, po; format: ADME, organism-based; parameters: dose 5 mg/kg, route oral; conditions: in vivo
Cytochrome P450 1A2 = target: T2, Cytochrome P450 1A2 (Homo sapiens, UniProt P05177); assay: Inhibition of CYP1A2; format: ADME
T2 sequence (P05177 whole entry): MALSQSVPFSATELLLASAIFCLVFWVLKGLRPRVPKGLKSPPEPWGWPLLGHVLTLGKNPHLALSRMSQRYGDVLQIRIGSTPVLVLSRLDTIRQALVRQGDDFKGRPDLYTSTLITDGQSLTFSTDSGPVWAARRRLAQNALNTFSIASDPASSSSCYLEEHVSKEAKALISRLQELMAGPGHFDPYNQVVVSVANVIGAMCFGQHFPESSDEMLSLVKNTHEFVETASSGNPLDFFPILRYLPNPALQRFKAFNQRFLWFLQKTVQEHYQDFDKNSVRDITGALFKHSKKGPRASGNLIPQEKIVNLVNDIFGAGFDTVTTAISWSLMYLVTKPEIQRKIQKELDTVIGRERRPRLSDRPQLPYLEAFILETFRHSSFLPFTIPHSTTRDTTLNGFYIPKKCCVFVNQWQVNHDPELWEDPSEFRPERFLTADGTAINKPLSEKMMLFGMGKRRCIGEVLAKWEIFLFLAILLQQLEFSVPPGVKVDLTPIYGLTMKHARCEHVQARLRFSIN

hERG (KCNH2) = hERG (KCNH2) (Homo sapiens, UniProt Q12809); assay: Inhibition of human ERG at 10 uM by patch clamp assay
Sequence of hERG (KCNH2) (Q12809 whole entry): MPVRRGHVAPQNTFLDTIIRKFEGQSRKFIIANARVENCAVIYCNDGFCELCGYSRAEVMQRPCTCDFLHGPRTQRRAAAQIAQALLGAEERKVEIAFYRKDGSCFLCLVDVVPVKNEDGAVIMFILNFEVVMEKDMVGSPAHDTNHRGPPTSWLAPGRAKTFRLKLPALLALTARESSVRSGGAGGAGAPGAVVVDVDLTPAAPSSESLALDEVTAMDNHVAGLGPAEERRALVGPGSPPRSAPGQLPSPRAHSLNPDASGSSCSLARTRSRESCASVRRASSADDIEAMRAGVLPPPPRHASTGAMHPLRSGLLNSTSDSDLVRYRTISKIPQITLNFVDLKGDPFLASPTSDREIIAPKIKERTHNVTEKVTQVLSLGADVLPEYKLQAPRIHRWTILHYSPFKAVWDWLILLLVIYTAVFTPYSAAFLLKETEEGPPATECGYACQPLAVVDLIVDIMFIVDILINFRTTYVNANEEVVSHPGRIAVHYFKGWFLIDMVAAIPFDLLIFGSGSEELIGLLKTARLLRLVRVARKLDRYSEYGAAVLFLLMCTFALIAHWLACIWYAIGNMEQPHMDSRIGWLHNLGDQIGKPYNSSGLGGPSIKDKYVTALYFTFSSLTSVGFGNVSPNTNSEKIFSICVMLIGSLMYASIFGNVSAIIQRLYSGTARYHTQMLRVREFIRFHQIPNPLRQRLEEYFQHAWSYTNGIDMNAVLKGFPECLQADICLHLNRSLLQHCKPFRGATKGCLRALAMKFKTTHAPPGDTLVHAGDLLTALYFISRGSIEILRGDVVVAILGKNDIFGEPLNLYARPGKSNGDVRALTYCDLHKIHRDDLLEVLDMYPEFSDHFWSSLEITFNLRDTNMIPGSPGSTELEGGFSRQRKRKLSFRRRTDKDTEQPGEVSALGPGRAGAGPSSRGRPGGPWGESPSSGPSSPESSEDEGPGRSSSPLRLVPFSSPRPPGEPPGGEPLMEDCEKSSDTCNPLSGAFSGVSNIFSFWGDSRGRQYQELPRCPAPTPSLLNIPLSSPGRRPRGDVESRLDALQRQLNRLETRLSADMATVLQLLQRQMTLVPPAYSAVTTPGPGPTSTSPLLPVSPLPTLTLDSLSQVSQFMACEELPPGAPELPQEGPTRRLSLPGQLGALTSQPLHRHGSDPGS

Cytochrome P450 3A4 = Cytochrome P450 3A4 (Homo sapiens, UniProt P08684); assay: Inhibition of CYP3A4; format: ADME
Sequence of Cytochrome P450 3A4 (P08684 whole entry): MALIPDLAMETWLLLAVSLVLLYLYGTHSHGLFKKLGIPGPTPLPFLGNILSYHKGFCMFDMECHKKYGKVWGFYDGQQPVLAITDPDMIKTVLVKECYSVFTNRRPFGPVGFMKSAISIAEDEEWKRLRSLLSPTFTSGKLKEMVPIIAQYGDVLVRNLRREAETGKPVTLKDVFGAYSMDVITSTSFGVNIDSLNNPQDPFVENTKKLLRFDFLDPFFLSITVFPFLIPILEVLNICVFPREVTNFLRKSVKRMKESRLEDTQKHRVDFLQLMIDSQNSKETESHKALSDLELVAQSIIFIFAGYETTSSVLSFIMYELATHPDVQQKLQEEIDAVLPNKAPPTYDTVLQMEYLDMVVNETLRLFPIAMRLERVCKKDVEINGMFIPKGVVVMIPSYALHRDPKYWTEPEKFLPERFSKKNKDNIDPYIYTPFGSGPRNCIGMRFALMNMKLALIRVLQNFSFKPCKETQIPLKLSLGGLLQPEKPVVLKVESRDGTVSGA

[9] = target: Histamine H1 receptor (Homo sapiens) (UniProt P35367); assay: Inhibition of human histamine H1 receptor at 10 uM
Sequence of Histamine H1 receptor (Homo sapiens) (P35367 whole entry): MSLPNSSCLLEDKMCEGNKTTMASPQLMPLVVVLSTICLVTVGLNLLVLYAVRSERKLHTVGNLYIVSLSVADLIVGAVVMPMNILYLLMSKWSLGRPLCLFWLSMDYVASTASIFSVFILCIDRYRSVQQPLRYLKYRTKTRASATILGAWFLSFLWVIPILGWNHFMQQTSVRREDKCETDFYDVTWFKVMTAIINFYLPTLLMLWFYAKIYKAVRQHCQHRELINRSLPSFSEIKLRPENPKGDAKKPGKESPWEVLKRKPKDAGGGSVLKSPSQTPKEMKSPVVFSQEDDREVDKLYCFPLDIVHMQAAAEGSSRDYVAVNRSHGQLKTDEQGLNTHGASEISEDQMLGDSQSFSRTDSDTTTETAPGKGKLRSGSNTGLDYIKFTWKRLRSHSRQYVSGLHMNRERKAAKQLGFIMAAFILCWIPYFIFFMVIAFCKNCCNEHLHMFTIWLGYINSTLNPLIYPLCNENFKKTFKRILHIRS

[10] = Volume of distribution in rat at 1 mg/kg, iv; format: ADME, organism-based; parameters: dose 1 mg/kg, route intravenous; conditions: in vivo
Histamine H3 receptor [11] = target: T1, Histamine H3 receptor; assay: Inverse agonist activity at human histamine H3 receptor assessed as decrease of basal activity of [35S]GTPgammaS binding; format: functional
[12] = target: Histamine H4 receptor (Homo sapiens) (UniProt Q9H3N8); assay: Inhibition of human histamine H4 receptor at 10 uM
Sequence of Histamine H4 receptor (Homo sapiens) (Q9H3N8 whole entry): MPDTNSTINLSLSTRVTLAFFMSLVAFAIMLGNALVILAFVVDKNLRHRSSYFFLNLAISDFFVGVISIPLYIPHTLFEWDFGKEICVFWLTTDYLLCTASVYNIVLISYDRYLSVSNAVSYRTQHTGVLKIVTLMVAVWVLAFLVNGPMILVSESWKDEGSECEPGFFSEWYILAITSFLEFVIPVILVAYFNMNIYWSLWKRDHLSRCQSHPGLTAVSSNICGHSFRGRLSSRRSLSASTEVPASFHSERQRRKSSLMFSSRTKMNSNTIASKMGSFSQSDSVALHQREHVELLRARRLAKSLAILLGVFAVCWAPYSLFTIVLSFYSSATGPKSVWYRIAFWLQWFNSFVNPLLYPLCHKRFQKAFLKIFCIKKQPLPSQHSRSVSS

Cytochrome P450 2D6 = Cytochrome P450 2D6 (Homo sapiens, UniProt P10635); assay: Inhibition of CYP2D6; format: ADME
Sequence of Cytochrome P450 2D6 (P10635 whole entry): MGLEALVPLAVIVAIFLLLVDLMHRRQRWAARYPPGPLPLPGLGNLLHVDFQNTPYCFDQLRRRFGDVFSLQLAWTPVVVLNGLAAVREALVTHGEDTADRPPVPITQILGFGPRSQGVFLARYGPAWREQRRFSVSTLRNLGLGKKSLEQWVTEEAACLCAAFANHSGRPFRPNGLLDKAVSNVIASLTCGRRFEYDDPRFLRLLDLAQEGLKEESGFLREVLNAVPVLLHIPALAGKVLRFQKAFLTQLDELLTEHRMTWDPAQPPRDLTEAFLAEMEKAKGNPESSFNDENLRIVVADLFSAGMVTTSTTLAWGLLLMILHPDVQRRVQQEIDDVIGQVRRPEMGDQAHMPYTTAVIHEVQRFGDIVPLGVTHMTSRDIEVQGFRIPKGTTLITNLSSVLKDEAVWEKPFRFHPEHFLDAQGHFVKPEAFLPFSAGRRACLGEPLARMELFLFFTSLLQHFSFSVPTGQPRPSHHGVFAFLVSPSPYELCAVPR

[13] = Oral bioavailability in rat at 5 mg/kg; format: ADME, organism-based; conditions: in vivo
[14] = AUC in rat at 5 mg/kg, po; format: ADME, organism-based; parameters: dose 5 mg/kg, route oral; conditions: plasma
Cytochrome P450 2C9 = Cytochrome P450 2C9 (Homo sapiens, UniProt P11712); assay: Inhibition of CYP2C9; format: ADME
Sequence of Cytochrome P450 2C9 (P11712 whole entry): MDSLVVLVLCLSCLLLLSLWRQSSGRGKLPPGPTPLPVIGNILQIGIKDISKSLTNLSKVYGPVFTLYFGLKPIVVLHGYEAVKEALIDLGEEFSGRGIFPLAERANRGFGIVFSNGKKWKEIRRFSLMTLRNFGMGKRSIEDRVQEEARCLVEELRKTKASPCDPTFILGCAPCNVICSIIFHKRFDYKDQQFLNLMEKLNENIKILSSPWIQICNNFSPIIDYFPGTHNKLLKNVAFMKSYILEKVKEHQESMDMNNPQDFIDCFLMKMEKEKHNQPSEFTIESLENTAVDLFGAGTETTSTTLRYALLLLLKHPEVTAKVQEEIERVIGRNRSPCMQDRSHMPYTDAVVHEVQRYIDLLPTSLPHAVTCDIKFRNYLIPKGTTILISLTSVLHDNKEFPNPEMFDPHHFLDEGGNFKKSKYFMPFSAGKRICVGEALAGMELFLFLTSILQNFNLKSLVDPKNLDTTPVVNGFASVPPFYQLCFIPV

[15] = target: Sodium-dependent noradrenaline transporter (Homo sapiens) (UniProt P23975); assay: Inhibition of norepinephrine transporter at 10 uM
[16] = target: Histamine H2 receptor (Homo sapiens) (UniProt P25021); assay: Inhibition of human histamine H2 receptor at 10 uM
[17] = Clearance in rat at 1 mg/kg, iv; format: ADME, organism-based; parameters: dose 1 mg/kg, route intravenous; conditions: in vivo
[18] = Half life in human liver microsomes; format: ADME, Microsome
[19] = Half life in dog liver microsomes; format: ADME, Canis lupus familiaris, Microsome
[20] = Half life in rat liver microsomes; format: ADME, Microsome

T1 sequence (Q9Y5N1 whole entry): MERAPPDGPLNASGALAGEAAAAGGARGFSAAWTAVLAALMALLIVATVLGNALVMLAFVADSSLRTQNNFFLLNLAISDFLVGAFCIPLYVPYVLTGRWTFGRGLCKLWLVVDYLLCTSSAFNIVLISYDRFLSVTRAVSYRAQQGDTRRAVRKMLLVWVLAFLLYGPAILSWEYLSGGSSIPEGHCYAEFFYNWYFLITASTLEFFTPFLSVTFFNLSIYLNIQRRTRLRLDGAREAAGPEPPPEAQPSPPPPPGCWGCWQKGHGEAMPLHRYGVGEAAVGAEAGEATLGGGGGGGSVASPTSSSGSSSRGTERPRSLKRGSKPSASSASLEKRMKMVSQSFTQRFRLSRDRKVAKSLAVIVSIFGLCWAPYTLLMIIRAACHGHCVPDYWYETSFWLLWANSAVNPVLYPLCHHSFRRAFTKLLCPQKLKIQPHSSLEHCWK
Sequence of Histamine H3 receptor (Rattus norvegicus, UniProt Q9QYN8) (Q9QYN8 whole entry): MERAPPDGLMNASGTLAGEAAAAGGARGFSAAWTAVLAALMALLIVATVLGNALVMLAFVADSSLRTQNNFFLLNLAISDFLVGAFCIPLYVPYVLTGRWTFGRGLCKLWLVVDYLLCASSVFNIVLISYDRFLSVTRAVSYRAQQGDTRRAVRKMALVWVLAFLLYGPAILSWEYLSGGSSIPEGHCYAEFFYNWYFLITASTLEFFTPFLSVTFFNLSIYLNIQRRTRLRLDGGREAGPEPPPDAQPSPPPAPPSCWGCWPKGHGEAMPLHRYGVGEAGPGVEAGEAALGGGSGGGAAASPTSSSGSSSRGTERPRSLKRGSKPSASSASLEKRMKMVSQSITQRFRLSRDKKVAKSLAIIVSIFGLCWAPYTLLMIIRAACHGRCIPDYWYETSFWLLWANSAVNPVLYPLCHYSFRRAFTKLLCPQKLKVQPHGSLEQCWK

SMILES	Ki (Histamine H3 receptor [1])	Ki (Histamine H3 receptor [2])	IC50 (Cytochrome P450 2C19)	IC50 (Cytochrome P450 1A2)	IC50 (Cytochrome P450 3A4)	IC50 (Cytochrome P450 2D6)	IC50 (Cytochrome P450 2C9)	other results
O=c1c2ccsc2c(-c2ccc(OCCCN3CCCCC3)cc2)nn1Cc1ccc(Cl)cc1	143 nM	48 nM	–	–	–	–	–	–
C[C@@H]1CCCN1CCCOc1ccc(-c2nn(C)c(=O)c3c2CCC3)cc1	2 nM	0.4 nM	> 30000 nM	> 30000 nM	> 30000 nM	> 30000 nM	> 30000 nM	Kb (Histamine H3 receptor [3]): 0.2 nM; AUC [4]: 182 ng·h/mL; half-life [5]: 15.6 min; inhibition [6]: 68%; Kp at 1 h [7]: 1.2; Cmax [8]: 7 ng/mL; inhibition at 10 µM (hERG (KCNH2)): 23%; inhibition [9]: < 30%; Vd [10]: 3.35 L/kg; EC50 (Histamine H3 receptor [11]): 0.8 nM; inhibition [12]: < 30%; bioavailability [13]: < 1%; AUC [14]: 5.82 ng·h/mL; inhibition [15]: 60%; inhibition [16]: < 30%; clearance [17]: 163 mL/min/kg
Cn1nc(-c2ccc(OCCCN3CCCC3)cc2)c2ccccc2c1=O	3.6 nM	1.7 nM	–	–	–	–	–	–
Cn1nc(-c2ccc(OCCN3CCCCC3)cc2)c2ccccc2c1=O	> 1000 nM	84 nM	–	–	–	–	–	–
CC(C)n1nc(-c2ccc(OCCCN3CCCCC3)cc2)c2sccc2c1=O	19 nM	1.9 nM	–	–	–	–	–	–
C[C@@H]1CCCN1CCCOc1ccc(-c2nn(Cc3ccc(Cl)cc3)c(=O)c3ccccc23)cc1	12 nM	4.6 nM	–	–	–	–	–	–
Cn1nc(-c2ccc(OCCCN3CCCCCC3)cc2)c2ccccc2c1=O	1.8 nM	1.4 nM	–	–	–	–	–	–
CCCn1nc(-c2ccc(OCCCN3CCC[C@H]3C)cc2)c2sccc2c1=O	12 nM	1.5 nM	–	–	–	–	–	–
Cn1nc(-c2ccc(OCCCN3CCCCC3)cc2)c2c(c1=O)CCCC2	4.5 nM	1.5 nM	> 30000 nM	> 30000 nM	> 30000 nM	> 30000 nM	> 30000 nM	–
COC[C@@H]1CCCN1CCCOc1ccc(-c2nn(C(C)C)c(=O)c3ccsc23)cc1	1170 nM	50 nM	–	–	–	–	–	–
C[C@@H]1CCCN1CCCOc1ccc(-c2nn(C)c(=O)c3ccccc23)cc1	3.8 nM	0.8 nM	–	–	–	–	–	–
C[C@@H]1CCCN1CCCOc1ccc(-c2nn(C)c(=O)c3c2CCCC3)cc1	1.2 nM	0.8 nM	> 30000 nM	> 30000 nM	> 30000 nM	> 30000 nM	> 30000 nM	–
CN1N=C(c2ccc(OCCCN3CCCCC3)cc2)C2CCCC2C1=O (configuration not stated)	9.4 nM	2.3 nM	> 30000 nM	> 30000 nM	> 30000 nM	> 30000 nM	> 30000 nM	–
O=c1c2ccccc2c(-c2ccc(OCCCN3CCCCC3)cc2)nn1Cc1ccc(Cl)cc1	23 nM	11 nM	–	–	–	–	–	–
CC(C)n1nc(-c2ccc(OCCCN3CCCC3)cc2)c2sccc2c1=O	7 nM	4 nM	–	–	–	–	–	–
Cn1nc(-c2ccc(OCCCN3CCCCC3)cc2)c2c(c1=O)CCC2	4.3 nM	0.5 nM	> 30000 nM	> 30000 nM	> 30000 nM	> 30000 nM	> 30000 nM	Kb (Histamine H3 receptor [3]): 0.2 nM; EC50 (Histamine H3 receptor [11]): 0.8 nM
Cn1nc(-c2ccc(OCCCN3CCCCC3)cc2)c2ccccc2c1=O	9 nM	0.8 nM	> 30000 nM	> 30000 nM	> 30000 nM	> 30000 nM	> 30000 nM	half-life [18]: > 40 min; AUC [4]: 402 ng·h/mL; half-life [5]: 18 min; Kp at 1 h [7]: 2.98; Cmax [8]: 20 ng/mL; Vd [10]: 1.36 L/kg; half-life [19]: > 40 min; bioavailability [13]: < 1%; AUC [14]: 14 ng·h/mL; half-life [20]: > 40 min; clearance [17]: 52 mL/min/kg
COC[C@H]1CCCN1CCCOc1ccc(-c2nn(C(C)C)c(=O)c3ccsc23)cc1	> 3000 nM	1120 nM	–	–	–	–	–	–
C[C@@H]1CCCN1CCCOc1ccc(-c2nn(Cc3ccc(Cl)cc3)c(=O)c3ccsc23)cc1	12 nM	2.4 nM	–	–	–	–	–	–
CCCn1nc(-c2ccc(OCCCN3CCC(C)CC3)cc2)c2sccc2c1=O	58 nM	23 nM	–	–	–	–	–	–
CC(C)n1nc(-c2ccc(OCCCN3CCC[C@H]3C)cc2)c2sccc2c1=O	8.3 nM	2.6 nM	> 30000 nM	> 30000 nM	> 30000 nM	> 30000 nM	> 30000 nM	AUC [4]: 160 ng·h/mL; half-life [5]: 18 min; Kp at 1 h [7]: 4.07; Cmax [8]: < 5 ng/mL; Vd [10]: 2.98 L/kg; bioavailability [13]: < 1%; clearance [17]: 117 mL/min/kg
C[C@@H]1CCCN1CCCOc1ccc(C2=NN(C)C(=O)C3CCCC23)cc1 (some centres not stated)	4.7 nM	1.6 nM	> 30000 nM	> 30000 nM	> 30000 nM	> 30000 nM	> 30000 nM	–
CCN(CC)CCCOc1ccc(-c2nn(C(C)C)c(=O)c3ccsc23)cc1	167 nM	23 nM	–	–	–	–	–	–
